Values of other authors as cited in patent US8362253B2, “Solid forms of N-[2,4-bis(1,1-dimethylethyl)-5-hydroxyphenyl]-1,4-dihydro-4-oxoquinoline-3-carboxamide” (Vertex Pharmaceutical Incorporated, priority 2007, dated 2013).

Tested on: cystic fibrosis transmembrane conductance regulator (CFTR) protein
Conditions: cells from patients with CF, CFTR present on the cell surface; background statement

## CC(C)(C)c1cc(C(C)(C)C)c(NC(=O)c2c[nH]c3ccccc3c2=O)cc1O [Compound 1, N-[2,4-bis(1,1-dimethylethyl)-5-hydroxyphenyl]-1,4-dihydro-4-oxoquinoline-3-carboxamide]
  Function of defective CFTR channels: restored the function of defective CFTR channels
